Laboratory results taken from patent US5919756A, “Amides” (Eli Lilly and Company, priority 1997, dated 1999).
In brackets after ≈: the same amount, converted by molar mass.

What was measured:
Format in all cases: cell-based
[1] = test system: Staphylococcus aureus 489; test: Broth micro-dilution MIC, SA 489; details: unit assumed
Method: (§1) The antibacterial efficacy of the present compounds is illustrated in TABLE 2. The minimal inhibitory concentrations (MICs) were determined using a standard broth micro-dilution assay.

[2] = test system: Staphylococcus haemolyticus 105; test: Broth micro-dilution MIC, SH 105; details: unit assumed
Method: as §1

[3] = test system: Streptococcus pyogenes 203; test: Broth micro-dilution MIC, S PY 203; details: unit assumed
Method: as §1

[4] = test system: Staphylococcus aureus 447; test: Broth micro-dilution MIC, SA 447; details: unit assumed
Method: as §1

[5] = test system: Streptococcus pneumoniae P1; test: Broth micro-dilution MIC, S PN P1; details: unit assumed
Method: as §1

[6] = test system: Staphylococcus haemolyticus 415; test: Broth micro-dilution MIC, SH 415; details: unit assumed
Method: as §1

[7] = test system: Staphylococcus aureus 446; test: Broth micro-dilution MIC, SA 446; details: unit assumed
Method: as §1

[8] = test system: Staphylococcus epidermis 270; test: Broth micro-dilution MIC, SE 270; details: unit assumed
Method: as §1

[9] = test system: Enterococcus, Resistant (4-6 isolates); test: Enterococcus screen, broth micro-dilution MIC, resistant isolates; set-up: unit not given here; details: mean of 4-6 isolates
Method: as §1

[10] = test system: Enterococcus, Sensitive (4-6 isolates); test: Enterococcus screen, broth micro-dilution MIC, sensitive isolates; set-up: unit not given here; details: mean of 4-6 isolates
Method: as §1

| Compound | MIC, SA 489 [1] | MIC, SH105 [2] | MIC, S PY 203 [3] | MIC, SA 447 [4] | MIC, S PN P1 [5] | MIC, SH415 [6] | MIC, SA 446 [7] | MIC, SE270 [8] | Minimum Inhibitory Concentrations (MICs), Mean Values of 4-6 Isolates, Resistant [9] | Minimum Inhibitory Concentrations (MICs), Mean Values of 4-6 Isolates, Sensitive [10] |
| --- | --- | --- | --- | --- | --- | --- | --- | --- | --- | --- |
| CNC(CC(C)C)C(=O)NC1C(=O)NC(CC(N)=O)C(=O)NC2C(=O)NC3C(=O)NC(C(=O)NC(C(=O)NCc4ccccc4)c4cc(O)cc(O)c4-c4cc3ccc4O)C(OC3CC(C)(N)C(O)C(C)O3)c3ccc(c(Cl)c3)Oc3cc2cc(c3OC2OC(CO)C(O)C(O)C2OC2CC(C)(NCc3ccc(-c4ccccc4)cc3)C(O)C(C)O2)Oc2ccc(cc2Cl)C1O.Cl (stereo not drawn) [Example 11, N^4-(4-phenylbenzyl)A82846B, benzylamide, HCl salt] | 1 µg/mL | 1 µg/mL | ≤ 0.06 µg/mL | 1 µg/mL | ≤ 0.06 µg/mL | 1 µg/mL | 4 µg/mL | 1 µg/mL | 1 | 0.11 |
| N^4 -(4-phenylbenzyl)A82846B, tert-butylamide, trifluoroacetate salt [Example 4] |  | 1 µg/mL | ≤ 0.06 µg/mL | 0.5 µg/mL | ≤ 0.06 µg/mL | 2 µg/mL | 2 µg/mL | 0.125 µg/mL | 2 | 0.082 |
| N^4 -(4-phenoxybenzyl)A82846B, phenethylamide, trifluoroacetate salt [Example 14] | 1 µg/mL | 0.5 µg/mL | ≤ 0.06 µg/mL | 2 µg/mL | ≤ 0.06 µg/mL | 2 µg/mL | 2 µg/mL | 1 µg/mL | 2 | 0.01 |
| CNC(CC(C)C)C(=O)NC1C(=O)NC(CC(N)=O)C(=O)NC2C(=O)NC3C(=O)NC(C(=O)NC(C(=O)NCCCN(C)C)c4cc(O)cc(O)c4-c4cc3ccc4O)C(OC3CC(C)(N)C(O)C(C)O3)c3ccc(c(Cl)c3)Oc3cc2cc(c3OC2OC(CO)C(O)C(O)C2OC2CC(C)(NCc3ccc(-c4ccccc4)cc3)C(O)C(C)O2)Oc2ccc(cc2Cl)C1O (stereo not drawn) [Example 21, N^4-(4-phenylbenzyl)A82846B, (3-(dimethylamino)-n-propyl) amide] | 2 µg/mL (≈ 1.09 µM) | 0.5 µg/mL (≈ 0.271 µM) | ≤ 0.06 µg/mL | 2 µg/mL (≈ 1.09 µM) | ≤ 0.06 µg/mL | 2 µg/mL (≈ 1.09 µM) | 4 µg/mL (≈ 2.17 µM) | 0.5 µg/mL (≈ 0.271 µM) | 1.2 | 0.054 |
| N^4 -(4-(4-CHLOROPHENYL)BENZYL)A82846B, 5-(TERT-BUTOXYCARBONYLAMINO)PENTYLAMIDE, TRIS(TRIFLUOROACETATE) SALT [Example 25] |  |  |  |  |  |  |  |  | 2.8 | 5.0 |
| N^4 -(4-phenylbenzyl)A82846B, (4-cyclohexylphenyl) amide, trifluoroacetate salt [Example 8] | 4 µg/mL | 4 µg/mL | ≤ 0.06 µg/mL | 2 µg/mL | ≤ 0.06 µg/mL | 4 µg/mL | 2 µg/mL | 2 µg/mL | 6.7 | 0.33 |
| N^4 -(4-phenoxybenzyl)A82846B, tert-butylamide, trifluoroacetate salt [Example 5] | 2 µg/mL | 4 µg/mL | ≤ 0.06 µg/mL | 2 µg/mL |  | 2 µg/mL | 8 µg/mL | 4 µg/mL | 4 | 0.22 |
| CNC(CC(C)C)C(=O)NC1C(=O)NC(CC(N)=O)C(=O)NC2C(=O)NC3C(=O)NC(C(=O)NC(C(=O)NCCC(c4ccccc4)c4ccccc4)c4cc(O)cc(O)c4-c4cc3ccc4O)C(OC3CC(C)(N)C(O)C(C)O3)c3ccc(c(Cl)c3)Oc3cc2cc(c3OC2OC(CO)C(O)C(O)C2OC2CC(C)(NCc3ccc(-c4ccccc4)cc3)C(O)C(C)O2)Oc2ccc(cc2Cl)C1O (stereo not drawn) [Example 22, N^4-(4-phenylbenzyl)A82846B, (3,3-diphenyl-n-propyl) amide] | 32 µg/mL (≈ 16.4 µM) | 8 µg/mL (≈ 4.1 µM) | 0.125 µg/mL (≈ 0.064 µM) | 32 µg/mL (≈ 16.4 µM) | 0.125 µg/mL (≈ 0.064 µM) | 8 µg/mL (≈ 4.1 µM) | 32 µg/mL (≈ 16.4 µM) | 16 µg/mL (≈ 8.2 µM) | 1.68 | 0.87 |
| CNC(CC(C)C)C(=O)NC1C(=O)NC(CC(N)=O)C(=O)NC2C(=O)NC3C(=O)NC(C(=O)NC(C(=O)NCCc4ccccc4)c4cc(O)cc(O)c4-c4cc3ccc4O)C(OC3CC(C)(N)C(O)C(C)O3)c3ccc(c(Cl)c3)Oc3cc2cc(c3OC2OC(CO)C(O)C(O)C2OC2CC(C)(NCc3ccc(-c4ccccc4)cc3)C(O)C(C)O2)Oc2ccc(cc2Cl)C1O (stereo not drawn) [Example 17, N^4-(4-phenylbenzyl)A82846B, phenethylamide] |  |  |  |  |  |  |  |  | 1.4 | 0.25 |
| CNC(CC(C)C)C(=O)NC1C(=O)NC(CC(N)=O)C(=O)NC2C(=O)NC3C(=O)NC(C(=O)NC(C(=O)NCCc4ccccc4)c4cc(O)cc(O)c4-c4cc3ccc4O)C(OC3CC(C)(N)C(O)C(C)O3)c3ccc(c(Cl)c3)Oc3cc2cc(c3OC2OC(CO)C(O)C(O)C2OC2CC(C)(NCc3ccc(-c4ccccc4)cc3)C(O)C(C)O2)Oc2ccc(cc2Cl)C1O.Cl (stereo not drawn) [Example 18, N^4-(4-phenylbenzyl)A82846B, phenethylamide, HCl salt] | 2 µg/mL | 2 µg/mL | ≤ 0.06 µg/mL | 1 µg/mL | ≤ 0.06 µg/mL | 2 µg/mL | 1 µg/mL | 1 µg/mL | 0.84 | 0.19 |
| CNC(CC(C)C)C(=O)NC1C(=O)NC(CC(N)=O)C(=O)NC2C(=O)NC3C(=O)NC(C(=O)NC(C(=O)NCCc4ccccc4)c4cc(O)cc(O)c4-c4cc3ccc4O)C(OC3CC(C)(N)C(O)C(C)O3)c3ccc(c(Cl)c3)Oc3cc2cc(c3OC2OC(CO)C(O)C(O)C2OC2CC(C)(NCc3ccc(-c4ccc(C)cc4)cc3)C(O)C(C)O2)Oc2ccc(cc2Cl)C1O (stereo not drawn) [Example 19, N^4-(4-(4-methylphenyl)benzyl)-A82846B, phenethylamide] | 2 µg/mL (≈ 1.07 µM) | 2 µg/mL (≈ 1.07 µM) | ≤ 0.06 µg/mL | 4 µg/mL (≈ 2.13 µM) | ≤ 0.06 µg/mL | 4 µg/mL (≈ 2.13 µM) | 2 µg/mL (≈ 1.07 µM) | 2 µg/mL (≈ 1.07 µM) | 1 | 0.22 |
| CNC(CC(C)C)C(=O)NC1C(=O)NC(CC(N)=O)C(=O)NC2C(=O)NC3C(=O)NC(C(=O)NC(C(=O)NCc4ccc(OC)cc4)c4cc(O)cc(O)c4-c4cc3ccc4O)C(OC3CC(C)(N)C(O)C(C)O3)c3ccc(c(Cl)c3)Oc3cc2cc(c3OC2OC(CO)C(O)C(O)C2OC2CC(C)(NCc3ccc(-c4ccccc4)cc3)C(O)C(C)O2)Oc2ccc(cc2Cl)C1O.O=C(O)C(F)(F)F (stereo not drawn) [Example 12, N^4-(4-phenylbenzyl)A82846B, (4-methoxybenzyl) amide, trifluoroacetate salt] | 0.5 µg/mL | 1 µg/mL | ≤ 0.06 µg/mL | 1 µg/mL | ≤ 0.06 µg/mL | 4 µg/mL | 2 µg/mL | 2 µg/mL | 1.7 | 0.13 |
| N^4 -(4-phenoxybenzyl)A82846B, n-octylamide, trifluoroacetate salt [Example 6] | 2 µg/mL | 1 µg/mL | ≤ 0.06 µg/mL | 1 µg/mL |  | 4 µg/mL | 4 µg/mL | 1 µg/mL | 1.7 | 0.44 |
| N^4 -(4-(4-CHLOROPHENYL)BENZYL)A82846B, 5-AMINOPENTYLAMIDE, TETRA(TRIFLUOROACETATE) SALT [Example 26] | 2 µg/mL | 0.5 µg/mL | 0.25 µg/mL | 1 µg/mL | 0.25 µg/mL | 2 µg/mL |  | 1 µg/mL | 1.7 | 0.44 |
| CNC(CC(C)C)C(=O)NC1C(=O)NC(CC(N)=O)C(=O)NC2C(=O)NC3C(=O)NC(C(=O)NC(C(=O)NCCc4ccccc4)c4cc(O)cc(O)c4-c4cc3ccc4O)C(OC3CC(C)(N)C(O)C(C)O3)c3ccc(c(Cl)c3)Oc3cc2cc(c3OC2OC(CO)C(O)C(O)C2OC2CC(C)(N)C(O)C(C)O2)Oc2ccc(cc2Cl)C1O.O=C(O)C(F)(F)F (stereo not drawn) [Example 16, A82846B, phenethylamide, trifluoroacetate salt] | ≤ 0.06 µg/mL | ≤ 0.06 µg/mL |  | ≤ 0.06 µg/mL | ≤ 0.06 µg/mL | 0.125 µg/mL | 0.125 µg/mL | ≤ 0.06 µg/mL | 16 | 0.25 |
